These results are taken from PMC11096368, “Transcriptomic signature, bioactivity and safety of a non-hepatotoxic analgesic generating AM404 in the midbrain PAG region” (Scientific Reports, 2024).

Entries after “also recorded” stand apart in the source; their conditions may differ. Where two headings read alike, the source gives them in different places. Where only a bound is given, the exact number is not on record here.

Data set [1] relates to male Sprague–Dawley rats. Briefly: Pulmonary function evaluation in conscious rats (GLP). Format: in vivo. The note with it: oral, 220, 440, 660 mg/kg. How it is done:
The potential effects of orally administered SRP-001 on respiratory rate, tidal volume, and minute volume in conscious male Sprague–Dawley rats was studied in 24 male rats. The rodents were trained for two days in the head-out plethysmograph chamber for 15–17 min each prior to the experiment. On the day of dosing, each animal was weighed and placed in the plethysmograph chamber, and baseline respiratory parameters were obtained for 5 min following an approximately 5-min stabilization period. The rats were then removed from the chamber and dosed by oral gavage. Three groups of six male Sprague–Dawley rats each were orally administered SRP-001 at a single dose of 220, 440, or 660 mg/kg at a dose volume of 10 mL/kg. […] Following dosing, each animal was returned to its designated plethysmograph chamber, and the respiratory parameters were recorded at 30 min (± 5 min), 2, 4, and 6 h (± 15 min). Animals were allowed to stabilize in the plethysmograph chamber for at least 5 min before each reading was taken. The following parameters were acquired, recorded, and analyzed using Ponemah Physiology Platform (Ponemah v.5.20 Pulmonary); Respiratory rate, Tidal Volume, and Minute Volume, Values for the test article treated group were compared to the vehicle control values using a two-way repeated measures ANOVA followed by a Bonferroni Multiple Comparison Test (SigmaStat, v. 4.0). […]

Data set [2] can be described thus: Phase 1 multiple ascending dose (MAD) pharmacokinetics. Type of data set: in vivo, human. The note with it: for half-life: human, plasma, oral. As for the experimental part:
A randomized, double-blind, placebo-controlled Phase 1 trial (ClinicalTrials.gov identifier: NCT05484414) (02/08/2022) was conducted to assess the safety, tolerability, food effect, pharmacokinetics (PK), and pharmacodynamics (PD) of single and multiple ascending doses of SRP-001 (Quotient Sciences, Miami FL USA; Fig. 3h - k and Methods). The trial was conducted in accordance with the International Council for Harmonisation of Technical Requirements for Pharmaceuticals for Human Use (ICH), Guideline for GCP: Consolidated Guidance (E6), attained Institutional Review Board approval, and all applicable regulatory requirements for Phase 1, First in Human clinical trials. Safety measurements and plasma samples to determine PK parameters were collected throughout the study for all subjects and reviewed by the Safety Review Committee. PK stopping criteria were established to assure that systemic exposure to SRP-001 was less than or equal to the systemic exposure achieved at the NOAEL doses in the 28-day repeat-dose toxicology studies in the rat and dog. The trial’s Safety Advisory Committee has approved the publication of the Phase 1 results.
SRP-001 was administered as an oral nanosuspension to 56 healthy volunteers across five Single Ascending Dose (SAD) and two Multiple Ascending Dose (MAD) cohorts, with 42 subjects receiving SRP-001 and 14 receiving a placebo.
A two-part randomized, double-blind, placebo-controlled Phase 1 trial was conducted to assess the safety, tolerability, PK and PD of SRP-001 ascending doses (Quotient Sciences, Miami, FL, USA). The study was conducted in accordance with the International Council for Harmonisation of Technical Requirements for Pharmaceuticals for Human Use (ICH), Guideline for GCP: Consolidated Guidance (E6), and applicable regulatory requirements(s) including clinical research guidelines established by the Basic Principles defined in the U.S. 21 CFR Parts 50, 56, and 312 and the principles enunciated in the Declaration of Helsinki (revised version Fortaleza 2013). The clinical protocol and informed consent form were reviewed and approved by an Institutional Review Board (IRB; Advarra IRB, 6100 Merriweather Drive, Suite 600, Columbia, MD 21,044; Quotient Protocol No. SRP-101 and Quotient Sciences Study No. QSC205130; Quotient Sciences Miami, 3898 NW 7th Street, Miami, FL 33,126.). The study comprises a SAD (Part 1) assessment that includes a food effect assessment that contributes data to inform a subsequent MAD (Part 2) dose-ranging study. Safety measurements were collected throughout the study for all subjects. Blood samples were collected to determine the PK parameters of SRP-001 (ClinicalTrials.gov identifier: NCT05484414) (02/08/2022).

Data set [3] has as its system Chinese Hamster ovary cells. Briefly: In vitro mammalian chromosomal aberration assay. Format: cell-based. Particulars: for Doses with cytotoxicity (≥ 45% reduction in cell growth index): non-activated 20-h exposure. As for the experimental part:
In the preliminary toxicity assay, the doses tested ranged from 0.0405 to 405 µg/mL (1 mM), which was the limit dose for this assay (Bioreliance, Rockville, MD USA).
The doses selected for evaluation of chromosome aberrations were 150, 300, and 405 µg/mL for the non-activated and S9-activated 4-h exposure groups; and 10, 40, and 80 µg/mL for the non-activated 20-h exposure group. […] The induction of structural aberrations was outside the 95% control limit of the historical negative control data of 0.00% to 2.79%. […] However, the induction of structural aberrations was within the 95% control limit of the historical negative control data of 0.00% to 4.28%. […] The induction of structural aberrations was outside the 95% control limit of the historical negative control data of 0.00% to 2.68%.
The induction of numerical aberrations was within the 95% control limit of the historical negative control data.

Regarding `CCN(CC)C(=O)c1ccccc1S(=O)(=O)NCC(=O)Nc1ccc(O)cc1` [SRP-001, N,N-diethyl-2-[[2-(4-hydroxyanilino)-2-oxo-ethyl]sulfamoyl]benzamide], the “Respiratory findings (respiratory rate, tidal volume, minute volume)” value in data set [1] is “did not induce any significant effects; also recorded: No significant findings”. The “PK parameters on Day 5 versus Day 1” value in data set [2] (Phase 1 MAD cohort) is on record as “decrease”. Besides, the half-life was 3.06 h in data set [2] (500 mg, MAD, 500 mg dose, Day 1, read-out: Geometric mean T1/2 (converted)); 4.92 h in data set [2] (500 mg, MAD, 500 mg dose, Day 5, read-out: Geometric mean T1/2 (converted)); 4.05 h in data set [2] (1000 mg, MAD, 1,000 mg dose, Day 1, read-out: Geometric mean T1/2 (converted)); 9.77 h in data set [2] (1000 mg, MAD, 1,000 mg dose, Day 5, read-out: Geometric mean T1/2 (converted)); 5.57 h in data set [2] (MAD cohorts, read-out: Arithmetic mean T1/2 (converted)); 4.9 to 9.8 h in data set [2] (Phase 1 trial, read-out: Half-life). For the same molecule, the “Cytotoxicity (≥ 45% reduction in cell growth index)” value in data set [3] was “not observed at any dose”. In data set [3], the “Induction of numerical chromosomal aberrations” value is given as “negative”. Also, the “Induction of structural chromosomal aberrations” value in data set [3] was “positive”. In addition, the Structural aberrations in data set [3] (Chinese hamster, 20 h, 80 µg/mL) is given as 3.7%. In addition, the “Dose with cytotoxicity (≥ 45% reduction in cell growth index)” value in data set [3] (chromosome aberration assay, non-activated 4-h exposure) was determined as 405 µg/mL. Besides, the results for the “Doses with cytotoxicity (≥ 45% reduction in cell growth index)” value in data set [3] (chromosome aberration assay) and in data set [3] (preliminary toxicity assay) were no less than 70 µg/mL and no less than 122 µg/mL, respectively.
